# Values of other authors, collected in US7011849B2, “Second release phase formulation” (Beecham Pharmaceuticals (Pte) Limited, priority 2000, dated 2006).
# Conditions: in vivo
compound,measurement,value
CC1(C)S[C@@H]2[C@H](NC(=O)[C@H](N)c3ccc(O)cc3)C(=O)N2[C@H]1C(=O)O [amoxicillin],elimination half-life,about 1.3 hours
